Source: patent US20080009418A1, “Selective Inhibitors” (Alchemia LTD., priority 2004, published 2008)

What was measured:
Human δ-opioid (DOP) = target: T1, Human δ-opioid (DOP) (Homo sapiens, UniProt P41143); assay: Radioligand binding, human δ-opioid (DOP) membranes, FlashPlate, [3H]-Bremazocine; settings: compound at 10 μM; [3H]-Bremazocine
T1 construct: purchased Perkin Elmer Biosignal
Summary of the method: (§1)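 Cloned human receptor membranes were coated onto FlashPlate wells and incubated with radioligand and compound (added from a 0.5 mM DMSO daughter plate) for 1 hour at room temperature in the dark. Scintillation counting gave percent inhibition, with DMSO defining total and reference ligand defining non-specific binding.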

Human κ-Opioid (KOP) = target: T2, Human κ-Opioid (KOP) (Homo sapiens, UniProt P41145); assay: Radioligand binding, human κ-opioid (KOP) membranes, filtration, [3H]-Diprenorphine; settings: compound at 10 μM; [3H]-Diprenorphine
T2 construct: purchased Perkin Elmer Biosignal
T2 sequence (P41145 whole entry): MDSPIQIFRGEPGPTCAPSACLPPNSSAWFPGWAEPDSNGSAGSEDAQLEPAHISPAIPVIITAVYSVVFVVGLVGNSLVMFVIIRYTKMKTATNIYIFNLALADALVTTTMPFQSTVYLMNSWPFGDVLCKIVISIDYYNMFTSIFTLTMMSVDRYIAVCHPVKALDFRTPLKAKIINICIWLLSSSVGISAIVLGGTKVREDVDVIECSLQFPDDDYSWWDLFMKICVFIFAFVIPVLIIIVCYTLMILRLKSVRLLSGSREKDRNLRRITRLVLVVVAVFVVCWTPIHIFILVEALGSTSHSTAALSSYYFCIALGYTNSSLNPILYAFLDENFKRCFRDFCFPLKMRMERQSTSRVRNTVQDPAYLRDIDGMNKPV
Summary of the method: (§2)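 Percent inhibition of radioligand binding measured on recombinant human membranes: NK1 with [125I]-Substance P, KOP with [3H]-Diprenorphine. Incubation 1 h at room temperature, then harvest onto 0.3% PEI-soaked filters, cold Tris-HCl pH 7.4 washes and scintillation counting; non-specific binding from reference ligand wells.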

Human Melanocortin (MC3) = target: T3, Human Melanocortin (MC3) (Homo sapiens, UniProt P41968); assay: Radioligand binding, human melanocortin MC3 membranes, FlashPlate, [125I]-NDP-αMSH; settings: compound at 10 μM; [125I]-NDP-αMSH
T3 construct: purchased Perkin Elmer Biosignal
T3 sequence (P41968 whole entry): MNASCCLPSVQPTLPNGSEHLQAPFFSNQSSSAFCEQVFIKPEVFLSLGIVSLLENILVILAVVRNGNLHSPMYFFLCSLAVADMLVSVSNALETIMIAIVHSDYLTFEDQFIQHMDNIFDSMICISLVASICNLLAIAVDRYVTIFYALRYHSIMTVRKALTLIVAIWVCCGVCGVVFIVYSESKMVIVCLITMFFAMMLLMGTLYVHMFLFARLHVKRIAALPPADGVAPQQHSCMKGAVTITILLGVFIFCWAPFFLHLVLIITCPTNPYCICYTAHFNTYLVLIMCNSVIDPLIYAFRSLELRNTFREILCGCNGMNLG
Summary of the method: as §1

Human Melanocortin (MC4) = target: T4, Human Melanocortin (MC4) (Homo sapiens, UniProt P32245); assay: Radioligand binding, human melanocortin MC4 membranes, FlashPlate, [125I]-NDP-αMSH; settings: compound at 10 μM; [125I]-NDP-αMSH
T4 construct: purchased Perkin Elmer Biosignal
T4 sequence (P32245 whole entry): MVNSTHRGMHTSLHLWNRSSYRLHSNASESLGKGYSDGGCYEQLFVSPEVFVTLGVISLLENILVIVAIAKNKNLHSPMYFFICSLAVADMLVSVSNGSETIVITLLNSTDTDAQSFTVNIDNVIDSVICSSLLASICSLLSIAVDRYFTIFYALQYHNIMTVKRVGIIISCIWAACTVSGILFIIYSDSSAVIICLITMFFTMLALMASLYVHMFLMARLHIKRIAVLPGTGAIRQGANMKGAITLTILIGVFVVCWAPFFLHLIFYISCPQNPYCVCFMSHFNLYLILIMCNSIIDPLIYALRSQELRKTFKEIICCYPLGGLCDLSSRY
Summary of the method: as §1

Human melanocortin (MC5) = target: T5, Human melanocortin (MC5) (Homo sapiens, UniProt P33032); assay: Radioligand binding, human melanocortin MC5 membranes, FlashPlate, [125I]-NDP-αMSH; settings: compound at 10 μM; [125I]-NDP-αMSH
T5 construct: purchased Perkin Elmer Biosignal
T5 sequence (P33032 whole entry): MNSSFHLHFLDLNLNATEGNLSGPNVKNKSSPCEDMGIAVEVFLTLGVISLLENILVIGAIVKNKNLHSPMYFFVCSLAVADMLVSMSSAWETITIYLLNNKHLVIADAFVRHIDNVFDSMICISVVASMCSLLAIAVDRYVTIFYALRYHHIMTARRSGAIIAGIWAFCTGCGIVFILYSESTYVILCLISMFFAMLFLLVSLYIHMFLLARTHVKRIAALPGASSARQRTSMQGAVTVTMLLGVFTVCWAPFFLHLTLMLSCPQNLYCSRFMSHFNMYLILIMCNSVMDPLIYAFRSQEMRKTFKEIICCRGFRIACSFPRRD
Summary of the method: as §1

[1] = target: T6, Human melanin-concentrating hormone (MCH1) (Homo sapiens, UniProt Q99705); assay: Radioligand binding, human melanin-concentrating hormone MCH1 membranes, FlashPlate, [125I]-S36057; settings: compound at 10 μM; [125I]-S36057
T6 construct: purchased Perkin Elmer Biosignal
T6 sequence (Q99705 whole entry): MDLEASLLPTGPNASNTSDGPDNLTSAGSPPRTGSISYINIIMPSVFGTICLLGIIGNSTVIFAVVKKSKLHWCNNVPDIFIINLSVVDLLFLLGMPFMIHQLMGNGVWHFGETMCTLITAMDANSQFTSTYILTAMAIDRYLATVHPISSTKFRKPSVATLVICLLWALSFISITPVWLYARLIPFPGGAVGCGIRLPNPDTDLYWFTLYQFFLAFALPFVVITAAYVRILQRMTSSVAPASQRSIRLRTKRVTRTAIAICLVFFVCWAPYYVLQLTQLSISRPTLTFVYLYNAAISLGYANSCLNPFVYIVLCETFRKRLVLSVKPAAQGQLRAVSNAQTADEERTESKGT
Summary of the method: as §1

Human μ-opioid (MOP) = target: T7, Human μ-opioid (MOP) (Homo sapiens, UniProt P35372); assay: Radioligand binding, human μ-opioid (MOP) membranes, FlashPlate, [3H]-Naloxone; settings: compound at 10 μM; [3H]-Naloxone
T7 construct: purchased Perkin Elmer Biosignal
T7 sequence (P35372 whole entry): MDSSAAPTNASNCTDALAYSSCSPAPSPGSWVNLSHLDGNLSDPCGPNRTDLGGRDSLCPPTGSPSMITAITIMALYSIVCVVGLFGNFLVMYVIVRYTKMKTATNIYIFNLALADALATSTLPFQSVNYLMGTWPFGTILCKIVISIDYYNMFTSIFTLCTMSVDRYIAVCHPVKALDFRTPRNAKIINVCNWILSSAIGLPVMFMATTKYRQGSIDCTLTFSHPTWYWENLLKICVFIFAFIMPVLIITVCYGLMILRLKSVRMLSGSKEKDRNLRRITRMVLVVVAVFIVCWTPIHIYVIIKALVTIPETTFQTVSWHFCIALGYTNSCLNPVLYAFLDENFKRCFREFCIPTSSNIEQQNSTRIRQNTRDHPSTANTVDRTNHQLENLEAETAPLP
Summary of the method: as §1

Human neurokinin (NK1) = target: T8, Human neurokinin (NK1) (Homo sapiens, UniProt P25103); assay: Radioligand binding, human neurokinin NK1 membranes, filtration, [125I]-Substance P; settings: compound at 10 μM; [125I]-Substance P
T8 construct: purchased Perkin Elmer Biosignal
T8 sequence (P25103 whole entry): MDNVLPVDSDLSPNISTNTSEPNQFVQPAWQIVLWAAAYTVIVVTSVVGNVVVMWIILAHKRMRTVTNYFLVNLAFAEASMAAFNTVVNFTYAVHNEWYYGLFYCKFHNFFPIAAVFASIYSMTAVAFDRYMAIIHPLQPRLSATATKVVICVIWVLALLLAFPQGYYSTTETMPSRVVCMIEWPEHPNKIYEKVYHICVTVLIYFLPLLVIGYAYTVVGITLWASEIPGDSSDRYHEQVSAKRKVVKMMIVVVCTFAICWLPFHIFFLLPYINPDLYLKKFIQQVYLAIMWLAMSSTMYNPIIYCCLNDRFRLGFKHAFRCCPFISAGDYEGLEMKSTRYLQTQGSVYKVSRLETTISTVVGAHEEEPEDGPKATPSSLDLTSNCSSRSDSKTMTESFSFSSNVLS
Summary of the method: as §2

[2] = target: T9, Human neuropeptide Y (NPY-Y1) (Homo sapiens, UniProt P25929); assay: Radioligand binding, human neuropeptide Y NPY-Y1 membranes, FlashPlate, [125I]-PYY; settings: compound at 10 μM; [125I]-PYY
T9 construct: purchased Perkin Elmer Biosignal
T9 sequence (P25929 1-384): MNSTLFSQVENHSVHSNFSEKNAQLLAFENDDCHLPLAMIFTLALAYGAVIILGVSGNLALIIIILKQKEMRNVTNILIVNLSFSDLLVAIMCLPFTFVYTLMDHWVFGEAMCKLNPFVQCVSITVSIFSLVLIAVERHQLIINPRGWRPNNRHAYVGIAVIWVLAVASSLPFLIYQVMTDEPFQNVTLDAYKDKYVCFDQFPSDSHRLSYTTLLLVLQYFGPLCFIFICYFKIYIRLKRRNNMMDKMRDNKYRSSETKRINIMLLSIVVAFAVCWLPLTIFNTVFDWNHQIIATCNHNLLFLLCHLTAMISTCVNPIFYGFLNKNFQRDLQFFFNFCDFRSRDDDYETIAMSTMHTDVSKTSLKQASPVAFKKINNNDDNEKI
Summary of the method: as §1

Human opioid (ORL1) = target: T10, Human opioid (ORL1) (Homo sapiens, UniProt P41146); assay: Radioligand binding, human opioid ORL1 membranes, FlashPlate, [125I]-Nociceptin; settings: compound at 10 μM; [125I]-Nociceptin
T10 construct: purchased Perkin Elmer Biosignal
T10 sequence (P41146 whole entry): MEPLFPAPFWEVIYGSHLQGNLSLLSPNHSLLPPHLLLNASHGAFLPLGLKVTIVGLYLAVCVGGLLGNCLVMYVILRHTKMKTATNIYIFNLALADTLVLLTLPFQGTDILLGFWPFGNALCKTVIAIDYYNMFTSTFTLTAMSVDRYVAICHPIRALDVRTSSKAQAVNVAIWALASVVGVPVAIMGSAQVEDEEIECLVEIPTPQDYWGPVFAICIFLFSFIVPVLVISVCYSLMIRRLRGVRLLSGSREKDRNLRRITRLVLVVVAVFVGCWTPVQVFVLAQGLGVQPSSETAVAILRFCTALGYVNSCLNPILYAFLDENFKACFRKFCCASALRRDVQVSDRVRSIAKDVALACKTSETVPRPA
Summary of the method: as §1

Mouse urotensin (mUR2) = target: T11, Mouse urotensin (mUR2) (Mus musculus, UniProt Q8VIH9); assay: Radioligand binding, mouse urotensin mUR2 membranes, FlashPlate, [125I]-Urotensin II; settings: compound at 10 μM; [125I]-Urotensin II
T11 construct: purchased Perkin Elmer Biosignal
T11 sequence (Q8VIH9 1-385): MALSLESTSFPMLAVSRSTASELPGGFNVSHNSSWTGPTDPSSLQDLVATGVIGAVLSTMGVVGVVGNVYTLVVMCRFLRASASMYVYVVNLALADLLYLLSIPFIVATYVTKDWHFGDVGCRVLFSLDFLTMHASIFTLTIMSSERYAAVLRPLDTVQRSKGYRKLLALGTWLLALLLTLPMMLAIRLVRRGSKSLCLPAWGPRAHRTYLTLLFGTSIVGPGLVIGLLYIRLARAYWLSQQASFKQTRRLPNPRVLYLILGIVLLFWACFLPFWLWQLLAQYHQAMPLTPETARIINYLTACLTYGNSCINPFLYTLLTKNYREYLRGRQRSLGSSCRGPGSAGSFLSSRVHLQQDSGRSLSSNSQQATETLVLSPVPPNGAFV
Summary of the method: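 Cloned mouse urotensin (mUR2) receptor membranes from Perkin Elmer Biosignal were immobilized in FlashPlate microplates using a proprietary coating. Each well got 19.5 μl buffer, then 0.5 μl of DMSO, reference ligand, or compound. Adding 5 μl of [125I]-Urotensin II, diluted to 5× final concentration in binding buffer, started binding. Plates were sealed with TopSeal-A and incubated 1 hour at room temperature in the dark. Wells were counted for 30 seconds each on a TopCount after a 60-second delay, and percentage inhibition was calculated.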

T1 sequence (P41143 whole entry): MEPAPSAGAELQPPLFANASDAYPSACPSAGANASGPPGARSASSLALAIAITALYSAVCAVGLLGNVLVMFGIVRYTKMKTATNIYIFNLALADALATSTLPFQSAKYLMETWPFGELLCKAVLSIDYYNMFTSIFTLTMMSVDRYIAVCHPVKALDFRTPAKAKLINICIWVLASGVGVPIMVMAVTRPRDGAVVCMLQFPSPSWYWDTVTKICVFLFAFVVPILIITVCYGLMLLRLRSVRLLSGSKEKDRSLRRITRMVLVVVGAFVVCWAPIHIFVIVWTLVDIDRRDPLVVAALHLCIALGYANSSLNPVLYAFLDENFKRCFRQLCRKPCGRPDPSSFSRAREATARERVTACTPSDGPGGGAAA

Row | Structure (SMILES) | A1 radioligand binding, percentage inhibition (Human δ-opioid (DOP)) | A2 radioligand binding, percentage inhibition (Human κ-Opioid (KOP)) | A3 radioligand binding, percentage inhibition (Human Melanocortin (MC3)) | A4 radioligand binding, percentage inhibition (Human Melanocortin (MC4)) | A5 radioligand binding, percentage inhibition (Human melanocortin (MC5)) | A6 radioligand binding, percentage inhibition [1] | A7 radioligand binding, percentage inhibition (Human μ-opioid (MOP)) | A8 radioligand binding, percentage inhibition (Human neurokinin (NK1)) | A9 radioligand binding, percentage inhibition [2] | A10 radioligand binding, percentage inhibition (Human opioid (ORL1)) | A11 radioligand binding, percentage inhibition (Mouse urotensin (mUR2))
1 | COC[C@H]1OC(OCc2cccc(O)c2)[C@H](NC(=O)CCNC(=N)N)[C@@H](OCc2ccc(-c3ccccc3)cc2)[C@@H]1O (stereo partly shown) [compound 142] | − (“−” indicates less than 50% inhibition at 10 μM) | − (“−” indicates less than 50% inhibition at 10 μM) | − (“−” indicates less than 50% inhibition at 10 μM) | − (“−” indicates less than 50% inhibition at 10 μM) | − (“−” indicates less than 50% inhibition at 10 μM) | + (“+” indicates greater than 50% inhibition at 10 μM) | − (“−” indicates less than 50% inhibition at 10 μM) | − (“−” indicates less than 50% inhibition at 10 μM) | − (“−” indicates less than 50% inhibition at 10 μM) | − (“−” indicates less than 50% inhibition at 10 μM) | − (“−” indicates less than 50% inhibition at 10 μM)
2 | COC[C@H]1OC(OCc2cccc(O)c2)[C@H](NC(=O)CCCN)[C@@H](OCc2ccc(-c3ccccc3)cc2)[C@@H]1O (stereo partly shown) [compound 143] | − (“−” indicates less than 50% inhibition at 10 μM) | − (“−” indicates less than 50% inhibition at 10 μM) | − (“−” indicates less than 50% inhibition at 10 μM) | − (“−” indicates less than 50% inhibition at 10 μM) | − (“−” indicates less than 50% inhibition at 10 μM) | − (“−” indicates less than 50% inhibition at 10 μM) | + (“+” indicates greater than 50% inhibition at 10 μM) | + (“+” indicates greater than 50% inhibition at 10 μM) | − (“−” indicates less than 50% inhibition at 10 μM) | − (“−” indicates less than 50% inhibition at 10 μM) | − (“−” indicates less than 50% inhibition at 10 μM)
3 | COC[C@H]1OC(OCc2cccc(O)c2)[C@H](NC(=O)CCCNC(=N)N)[C@@H](OCc2ccc(-c3ccccc3)cc2)[C@@H]1O (stereo partly shown) [compound 144] | − (“−” indicates less than 50% inhibition at 10 μM) | − (“−” indicates less than 50% inhibition at 10 μM) | − (“−” indicates less than 50% inhibition at 10 μM) | − (“−” indicates less than 50% inhibition at 10 μM) | + (“+” indicates greater than 50% inhibition at 10 μM) | + (“+” indicates greater than 50% inhibition at 10 μM) | + (“+” indicates greater than 50% inhibition at 10 μM) | + (“+” indicates greater than 50% inhibition at 10 μM) | − (“−” indicates less than 50% inhibition at 10 μM) | − (“−” indicates less than 50% inhibition at 10 μM) | − (“−” indicates less than 50% inhibition at 10 μM)
4 | COC[C@H]1OC(OCc2cccc(O)c2)[C@H](NC(=O)CCNC(=N)N)[C@@H](OCc2ccc(Cl)cc2)[C@@H]1O (stereo partly shown) [compound 145] | − (“−” indicates less than 50% inhibition at 10 μM) | − (“−” indicates less than 50% inhibition at 10 μM) | − (“−” indicates less than 50% inhibition at 10 μM) | − (“−” indicates less than 50% inhibition at 10 μM) | − (“−” indicates less than 50% inhibition at 10 μM) | + (“+” indicates greater than 50% inhibition at 10 μM) | − (“−” indicates less than 50% inhibition at 10 μM) | − (“−” indicates less than 50% inhibition at 10 μM) | − (“−” indicates less than 50% inhibition at 10 μM) | − (“−” indicates less than 50% inhibition at 10 μM) | − (“−” indicates less than 50% inhibition at 10 μM)
5 | CO[C@H]1[C@H](O)[C@@H](COCc2cccc(O)c2)OC(OCc2ccc(-c3ccccc3)cc2)[C@@H]1NC(=O)CNC(=N)N (stereo partly shown) [compound 146] | − (“−” indicates less than 50% inhibition at 10 μM) | + (“+” indicates greater than 50% inhibition at 10 μM) | − (“−” indicates less than 50% inhibition at 10 μM) | − (“−” indicates less than 50% inhibition at 10 μM) | + (“+” indicates greater than 50% inhibition at 10 μM) | − (“−” indicates less than 50% inhibition at 10 μM) | − (“−” indicates less than 50% inhibition at 10 μM) | + (“+” indicates greater than 50% inhibition at 10 μM) | − (“−” indicates less than 50% inhibition at 10 μM) | − (“−” indicates less than 50% inhibition at 10 μM) | − (“−” indicates less than 50% inhibition at 10 μM)
